Key:
[1] = test system: H3K4, H3K9 and H3K27 methylation in THP-1 cells; assay: Methylation analysis: other histone methylation sites in THP-1 cells; format: cell-based, Human; conditions: antibodies to H3K4me3, H3K9me3, H3K27me2, H3K27me3
Description: (§1) Cells were seeded at 5×10^5 cells/mL in a 12 well plate at a final volume of 2 mLs. Cells were dosed with compounds to the appropriate concentration from a 50 mM DMSO stock solution. Compound and media were refreshed every two days over the course of seven day incubation by counting cells using trypan blue exclusion (Vicell), pelleting at 200 g for 5 minutes and resuspending in fresh media containing compound at a final cell concentration of 5×10^5 cells/mL. Following compound incubation, histones were extracted from 1×10^6 cells using a commercial histone extraction kit (Active Motif). Purified histones were quantitated using the BCA protein assay (Pierce) with a BSA standard curve. 400 ng of isolated histones were fractionated by SDS-PAGE on a 4-20% gel and transferred to nitrocellulose membranes. Membranes were incubated with various primary and secondary antibodies and imaged on the Licor imaging system (Odyssey). The H3K79-Me2 rabbit polyclonal was purchased from Abcam. Other rabbit polyclonal antibodies including H3K4-Me3, H3K9-Me3, H3K27-Me2, and H3K27-Me3 were purchased from Cell Signaling Technologies (CST). A mouse monoclonal total H3 antibody was used as a loading control (CST). Fluorescently labeled secondary antibodies were purchased from Odyssey.

H3K79me2 in THP-1 cells = assay: Methylation analysis: cellular H3K79 dimethylation in THP-1 cells; format: cell-based, Human
Description: THP-1 cells were incubated in the presence 50 μM of the indicated compounds for seven days. […] Following treatment, cells were harvested, and histones were extracted, fractionated by SDS-PAGE on a 4-20% gel, transferred to nitrocellulose membranes, and probed with antibodies to histone H3 and histone H3 dimethylated at lysine 79 (H3K79me2). Histones extracted from THP-1 cells expressing control (shNTC) and DOT1L targeting (shDOT1L) shRNAs were included as controls.
as §1, with “Following compound incubation, histones were extracted from 1×10^6 cells using a commercial histone extraction kit (Active Motif).” left out

EZH2 = EZH2 (Homo sapiens, UniProt Q15910); assay: EZH2 IC50 (FIGS. 7A and 7B); format: biochemical
Chain of EZH2 (Q15910 whole entry, species assumed): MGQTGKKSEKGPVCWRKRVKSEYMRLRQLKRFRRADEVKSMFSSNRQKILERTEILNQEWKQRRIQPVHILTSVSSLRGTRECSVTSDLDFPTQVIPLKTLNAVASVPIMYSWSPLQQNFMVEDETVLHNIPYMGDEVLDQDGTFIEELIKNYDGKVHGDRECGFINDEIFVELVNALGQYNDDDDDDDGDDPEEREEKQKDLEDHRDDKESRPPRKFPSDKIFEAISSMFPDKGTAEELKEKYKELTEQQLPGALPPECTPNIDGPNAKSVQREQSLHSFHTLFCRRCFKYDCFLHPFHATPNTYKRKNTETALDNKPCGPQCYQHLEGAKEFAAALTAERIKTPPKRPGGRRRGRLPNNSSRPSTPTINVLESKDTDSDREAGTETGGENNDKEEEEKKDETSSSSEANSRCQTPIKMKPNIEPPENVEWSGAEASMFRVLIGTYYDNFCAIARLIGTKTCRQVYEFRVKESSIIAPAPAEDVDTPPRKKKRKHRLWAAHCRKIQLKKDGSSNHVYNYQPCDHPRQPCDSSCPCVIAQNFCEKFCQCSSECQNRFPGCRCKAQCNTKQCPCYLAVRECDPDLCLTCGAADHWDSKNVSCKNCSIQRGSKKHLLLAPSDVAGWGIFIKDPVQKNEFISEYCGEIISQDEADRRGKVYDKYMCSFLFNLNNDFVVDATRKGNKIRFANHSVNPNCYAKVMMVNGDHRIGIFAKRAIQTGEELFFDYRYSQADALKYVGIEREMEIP
Chain of EZH2 (O75530 whole entry partner, species assumed): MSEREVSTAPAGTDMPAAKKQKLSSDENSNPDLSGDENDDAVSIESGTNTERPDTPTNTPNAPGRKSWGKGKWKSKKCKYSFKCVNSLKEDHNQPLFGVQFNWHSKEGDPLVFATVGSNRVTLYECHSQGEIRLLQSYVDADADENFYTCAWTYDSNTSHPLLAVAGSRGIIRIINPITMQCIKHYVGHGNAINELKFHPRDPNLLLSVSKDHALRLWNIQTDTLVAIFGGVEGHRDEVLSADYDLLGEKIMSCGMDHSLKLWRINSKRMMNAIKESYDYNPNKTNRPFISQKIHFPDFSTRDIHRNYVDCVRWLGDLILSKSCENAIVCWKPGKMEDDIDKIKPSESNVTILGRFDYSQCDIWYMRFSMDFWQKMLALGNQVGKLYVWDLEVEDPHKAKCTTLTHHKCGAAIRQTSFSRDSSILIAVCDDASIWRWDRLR
Chain of EZH2 (Q15022 whole entry partner, species assumed): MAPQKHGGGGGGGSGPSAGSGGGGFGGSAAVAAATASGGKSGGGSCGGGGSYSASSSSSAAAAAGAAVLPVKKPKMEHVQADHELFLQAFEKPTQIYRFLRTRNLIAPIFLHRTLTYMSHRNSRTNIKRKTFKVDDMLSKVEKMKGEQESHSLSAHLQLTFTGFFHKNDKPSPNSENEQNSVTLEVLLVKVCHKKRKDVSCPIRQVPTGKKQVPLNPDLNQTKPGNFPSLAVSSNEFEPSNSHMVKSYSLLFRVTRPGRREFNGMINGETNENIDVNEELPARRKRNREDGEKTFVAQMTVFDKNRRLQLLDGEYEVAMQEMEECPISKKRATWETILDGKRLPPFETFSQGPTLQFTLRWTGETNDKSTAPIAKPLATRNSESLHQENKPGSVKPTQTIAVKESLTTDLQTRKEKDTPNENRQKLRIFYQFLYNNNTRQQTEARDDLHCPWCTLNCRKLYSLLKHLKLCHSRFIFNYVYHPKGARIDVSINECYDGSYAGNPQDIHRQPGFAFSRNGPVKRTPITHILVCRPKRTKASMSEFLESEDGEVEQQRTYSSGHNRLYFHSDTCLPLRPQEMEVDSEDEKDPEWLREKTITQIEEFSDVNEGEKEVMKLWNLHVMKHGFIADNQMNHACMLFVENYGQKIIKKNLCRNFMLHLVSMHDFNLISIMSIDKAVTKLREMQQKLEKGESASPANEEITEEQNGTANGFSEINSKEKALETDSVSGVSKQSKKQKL

IC50 (EZH2) [µM] | Compound | other results
> 50 | CN(CCCOC(=O)Nc1ccc(C(C)(C)C)cc1)C[C@H]1O[C@@H](n2cnc3c(N)ncnc32)[C@H](O)[C@@H]1O [Compound 152] | –
> 50 | CN(CCCCNC(=O)Nc1ccc(C(C)(C)C)cc1)C[C@H]1O[C@@H](n2cnc3c(N)ncnc32)[C@H](O)[C@@H]1O [Compound 159] | –
> 50 | CN(CCCCC(=O)Nc1ccc(C(C)(C)C)cc1)C[C@H]1O[C@@H](n2cnc3c(N)ncnc32)[C@H](O)[C@@H]1O [Compound 179] | –
> 50 | CN(CCCNC(=O)Nc1ccc(Oc2ccccc2N)cc1)C[C@H]1O[C@@H](n2cnc3c(N)ncnc32)[C@H](O)[C@@H]1O [Compound 183] | –
> 50 | CN(CCCNC(=O)Nc1ccc(C2CCCCC2)cc1)C[C@H]1O[C@@H](n2cnc3c(N)ncnc32)[C@H](O)[C@@H]1O [Compound 185] | –
> 50 | CN(CCCNC(=O)Nc1ccc(-c2cscn2)cc1)C[C@H]1O[C@@H](n2cnc3c(N)ncnc32)[C@H](O)[C@@H]1O [Compound 190] | –
> 50 | CC(=O)N(CCCNC(=O)Nc1ccc(C(C)(C)C)cc1)C[C@H]1O[C@@H](n2cnc3c(N)ncnc32)[C@H](O)[C@@H]1O [Compound 195] | –
> 50 | Cc1cccc(-c2ccc(NC(=O)NCCCN(C)C[C@H]3O[C@@H](n4cnc5c(N)ncnc54)[C@H](O)[C@@H]3O)cc2)c1 [Compound 199] | –
> 50 | CN(CCCCCNC(=O)Nc1ccc(C(C)(C)C)cc1)C[C@H]1O[C@@H](n2cnc3c(N)ncnc32)[C@H](O)[C@@H]1O [Compound 213] | –
> 50 | CC(CNC(=O)Nc1ccc(C(C)(C)C)cc1)CN(C)C[C@H]1O[C@@H](n2cnc3c(N)ncnc32)[C@H](O)[C@@H]1O (some centres unmarked) [Compound 223] | –

More lines, now with the values behind:

Compound | IC50 (EZH2) [µM] | other results
CN(CCCNC(=O)Nc1ccc(C(C)(C)C)cc1)C[C@H]1O[C@@H](n2cnc3c(N)ncnc32)[C@H](O)[C@@H]1O [Compound 118, 1-(3-((((2R,3S,4R,5R)-5-(6-amino-9H-purin-9-yl)-3,4-dihydroxytetrahydrofuran-2-yl)methyl)(methyl)amino)propyl)-3-(4-(tert-butyl)phenyl)urea] | – | effect on sites targeted by other histone methyltransferases (H3K4, H3K9 and H3K27) [1]: did not affect; cellular histone H3 lysine 79 dimethylation (H3K79me2) level (H3K79me2 in THP-1 cells; 50 μM, seven days, western blot): dramatically reduced; concentration at which reduction in H3K79me2 was still observed (H3K79me2 in THP-1 cells; seven days, lowest concentration tested): ≤ 0.4 µM; concentration dependence of reduction in H3K79me2 levels (H3K79me2 in THP-1 cells; several concentrations): dose dependent reduction
CN(C[C@H]1O[C@@H](n2cnc3c(N)ncnc32)[C@H](O)[C@@H]1O)CC(C)(C)CNC(=O)Nc1ccc(C(C)(C)C)cc1 [Compound 163] | > 50 | –
CN(C[C@H]1O[C@@H](n2cnc3c(N)ncnc32)[C@H](O)[C@@H]1O)CC1(CNC(=O)Nc2ccc(C(C)(C)C)cc2)CC1 [Compound 167] | > 50 | –
CCN(CCCNC(=O)Nc1ccc(C(C)(C)C)cc1)C[C@H]1O[C@@H](n2cnc3c(N)ncnc32)[C@H](O)[C@@H]1O [Compound 169] | > 50 | –
CN(CCCN(C)C(=O)Nc1ccc(C(C)(C)C)cc1)C[C@H]1O[C@@H](n2cnc3c(N)ncnc32)[C@H](O)[C@@H]1O [Compound 173] | > 50 | –
CC(C)(C)c1ccc(NC(=O)NCCCN(C=O)C[C@H]2O[C@@H](n3cnc4c(N)ncnc43)[C@H](O)[C@@H]2O)cc1 [Compound 206] | > 50 | –
CC(C)CN(CCCNC(=O)Nc1ccc(C(C)(C)C)cc1)C[C@H]1O[C@@H](n2cnc3c(N)ncnc32)[C@H](O)[C@@H]1O [Compound 209] | > 50 | –

Reference: patent publication US9029343B2, “Modulators of histone methyltransferase, and methods of use thereof” (Epizyme, Inc., priority 2010, dated 2015)
